SMILES strings stand for the structures. In brackets after ≈: the same amount, converted by molar mass. Like-named read-outs stand apart in the source and are kept apart here. Some results are limits rather than exact numbers.

The subject of data set [1] is K. pneumoniae 4640. The data set can be described thus: microbe, parasite or virus in culture.
The test system of the next data set is E. cloacae ATCC 35549. In words: microbe, parasite or virus in culture. To be noted: for Bacterial MIC: E. cloacae 35549; for MIC: Enterobacter cloacae. In short, it runs like this: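 Each strain was exposed in duplicate to two-fold peptide dilutions (0.25 to 128 μg/mL) in cation-adjusted Mueller-Hinton broth at 1 × 10⁵ CFU/mL. After 20 h at 37 °C without shaking, the lowest concentration lacking visible growth was recorded following CLSI.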

Data set [2] has as its system A. baumannii 5075. In words: microbe, parasite or virus in culture.
The test system of data set [3] is A. baumannii 5075.
Details of data set [4]: method as in Biomatik (vendor). To be noted: 1.0 mg peptide in 1.0 ml solvent; peptides synthesized by Biomatik; ref Biomatik (vendor); cited from earlier work.
For data set [5], the system named is Batrachochytrium dendrobatidis Bd-GPL strain JEL404. To be noted: slope of growth, positive = inhibition, negative = no inhibition. On the procedure: Bd-peptide challenge assays were conducted with the crude peptides extracted from the salamander skin secretions and with the 20 synthesized peptides. We followed methods by Pereria et al.[49] to conduct assays with the crude peptides using Bd-GPL strain JEL404 at 1 × 10^6 zoospores/mL. Briefly, skin peptide samples were pooled together based on species-site-injection (Table 1). Skin peptides samples were serially diluted 2-fold in MilliQ (Ultrapure Type 1) water and assayed at a concentration of 2.35–75 μg/mL based on starting peptide concentration available. For synthesized peptides, we conducted assays from 15.6 to 500 μg/ml. In both assays, we quantified percent inhibition of each well using slope of growth[90] in which positive values indicate inhibition and negative values indicate no inhibition.

A further data set has as its system HepG2 (ATCC HB-8065). In words: HepG2 cytotoxicity, MTT assay. It is filed as cell-based, human. Particulars: at concentrations up to 5.25 μg/mL (5.25 to 0.15 µg/mL), 48 h. On the procedure: For any inhibitory peptides, HepG2 (ATCC HB-8065) cytotoxicity was tested to determine half-maximal inhibitory concentration (IC50) of human cells. The procedure involved seeding 96-well plates with 2.5 × 10^4 cells per well in 170 µL of culture medium, followed by an overnight incubation at 37 °C in a 5% CO₂ atmosphere. Subsequently, cells were exposed to varying concentrations of the test peptides, ranging from 5.25 µg/mL to 0.15 µg/mL, and incubated for an additional 48 h. Cell viability was assessed using the MTT assay, as previously described. Absorbance measurements were obtained using a PerkinElmer EnSight plate reader. The IC50 values for each compound were calculated by fitting the data to a sigmoidal dose-response curve with variable slope using GraphPad Prism software. Each assay plate included three controls: (a) background control—wells without cells and without drug; (b) positive control—wells with cells and 10 µg/mL of a known toxic compound; and (c) DMSO control—wells with cells and 0.2% DMSO, the highest concentration of DMSO used in the assay, which is non-toxic to the cells.
Background: Tetrazolium dyes change colour on reduction, which living cells bring about.

Data set [6] has as its system K. pneumoniae 4640. To be noted: K. pneumoniae 4640.
[7] abbreviates: CAMHB, 1 × 10⁵ CFU/mL, 0.25 to 128 μg/mL, 37 °C 20 h, duplicate, read visually (CLSI).

On to `C[C@H]1COc2c(N3CCN(C)CC3)c(F)cc3c(=O)c(C(=O)O)cn1c23` [Levofloxacin, reference compound], for which the MIC is 32 µg/mL (≈ 88.6 µM) against K. pneumoniae 4640 [1] (Klebsiella pneumoniae, 4640, 20 h, K. pneumoniae 4640, CAMHB, 1 × 10⁵ CFU/mL, 0.25 to 128 μg/mL, 37 °C 20 h, duplicate, read visually (CLSI)); 32 to 64 µg/mL (≈ 88.6 to 177 µM) in the data set with K. pneumoniae 4640 [1] (Klebsiella pneumoniae, 4640, read-out: Bacterial MIC, K. pneumoniae 4640, Historical run 15NOV23); 64 µg/mL (≈ 177 µM) in the data set with K. pneumoniae 4640 [1] (Klebsiella pneumoniae, 4640, read-out: Bacterial MIC, K. pneumoniae 4640, Historical run 19APRIL23); 32 µg/mL (≈ 88.6 µM) in the data set with K. pneumoniae 4640 [1] (Klebsiella pneumoniae, 4640, read-out: Bacterial MIC, K. pneumoniae 4640, Historical run 22NOV23); 32 µg/mL (≈ 88.6 µM) in the data set with K. pneumoniae 4640 [1] (Klebsiella pneumoniae, 4640, read-out: Bacterial MIC, K. pneumoniae 4640, Week 1 (12/6/2023)); 32 µg/mL (≈ 88.6 µM) in the data set with K. pneumoniae 4640 [1] (Klebsiella pneumoniae, 4640, read-out: Bacterial MIC, K. pneumoniae 4640, Week 2 (12/14/2023)). Moreover, the MIC in the data set on E. cloacae ATCC 35549 (ATCC35549, 20 h) was 0.25 µg/mL (≈ 0.692 µM); in the data set on E. cloacae ATCC 35549 (ATCC35549, read-out: Bacterial MIC), at most 0.25 µg/mL; in the data set with A. baumannii 5075 [2] (Acinetobacter baumannii, 5075, 20 h, A. baumannii 5075, CAMHB, 1 × 10⁵ CFU/mL, 0.25 to 128 μg/mL, 37 °C 20 h, duplicate, read visually (CLSI)), 4 µg/mL (≈ 11.1 µM); in the data set with A. baumannii 5075 [2] (Acinetobacter baumannii, 5075, read-out: Bacterial MIC, A. baumannii 5075, Historical run 15NOV23), 8 µg/mL (≈ 22.1 µM); with A. baumannii 5075 [2] (Acinetobacter baumannii, 5075, read-out: Bacterial MIC, A. baumannii 5075, Historical run 19APRIL23), 4 µg/mL (≈ 11.1 µM); in the data set with A. baumannii 5075 [2] (Acinetobacter baumannii, 5075, read-out: Bacterial MIC, A. baumannii 5075, Historical run 22NOV23), 4 µg/mL (≈ 11.1 µM). Also, the MIC in the data set on A. baumannii 5075 [2] (Acinetobacter baumannii, 5075, read-out: Bacterial MIC, A. baumannii 5075, Week 1 (12/6/2023)) is 4 µg/mL (≈ 11.1 µM); in the data set with A. baumannii 5075 [2] (Acinetobacter baumannii, 5075, read-out: Bacterial MIC, A. baumannii 5075, Week 2 (12/14/2023)), 4 µg/mL (≈ 11.1 µM). In addition, the “Bacterial MIC” value with E. cloacae ATCC 35549 (Historical run 15NOV23), with E. cloacae ATCC 35549 (Historical run 19APRIL23), with E. cloacae ATCC 35549 (Historical run 22NOV23) and in the data set with E. cloacae ATCC 35549 (Week 2 (12/14/2023)) was “<= 0.250 µg/mL” each time.
Consider `CC[C@H](C)[C@H](NC(=O)[C@H](CCCCN)NC(=O)[C@H](CCC(=O)O)NC(=O)[C@H](CCCCN)NC(=O)[C@H](CO)NC(=O)[C@H](CCCCN)NC(=O)[C@H](CCCNC(=N)N)NC(=O)[C@H](Cc1ccccc1)NC(=O)[C@H](Cc1ccccc1)NC(=O)[C@H](CC(=O)O)NC(=O)CNC(=O)[C@H](CC(C)C)NC(=O)[C@@H](N)CC(C)C)C(=O)NCC(=O)N[C@@H](CCCCN)C(=O)N[C@@H](CCC(=O)O)C(=O)N[C@@H](Cc1ccccc1)C(=O)N[C@@H](CCCCN)C(=O)N[C@@H](CCCNC(=N)N)C(=O)N[C@H](C(=O)N[C@H](C(=O)N[C@@H](CCC(N)=O)C(=O)N[C@@H](CCCNC(=N)N)C(=O)N[C@H](C(=O)N[C@@H](CCCCN)C(=O)N[C@@H](CC(=O)O)C(=O)N[C@@H](Cc1ccccc1)C(=O)N[C@@H](CC(C)C)C(=O)N[C@@H](CCCNC(=N)N)C(=O)N[C@@H](CC(N)=O)C(=O)N[C@@H](CC(C)C)C(=O)N[C@H](C(=O)N1CCC[C@H]1C(=O)N[C@@H](CCCNC(=N)N)C(=O)N[C@H](C(=O)N[C@@H](CCC(=O)O)C(=O)N[C@@H](CO)C(=O)O)[C@@H](C)O)C(C)C)[C@@H](C)CC)C(C)C)[C@@H](C)CC` [LL-37, reference compound], for which the results for the MIC in the data set with A. baumannii 5075 [3] (setting [7]) and with K. pneumoniae 4640 [6] (setting [7]) were 4 µg/mL (≈ 0.89 µM) and 64 µg/mL (≈ 14.2 µM), respectively. For the same compound, the “Bacterial MIC” value with A. baumannii 5075 [3] (Week 1 (12/6/2023)) came to 4 µg/mL; in the data set on A. baumannii 5075 [3] (Week 2 (12/14/2023)), 4 µg/mL; in the data set on K. pneumoniae 4640 [6] (Week 1 (12/6/2023)), 64 µg/mL; with K. pneumoniae 4640 [6] (Week 2 (12/14/2023)), 64 µg/mL. Besides, the “Suggest solvent (solubility)” value in data set [4] is given as 1.0mg peptide soluble in 1.0ml (H2O:Acetonitrile=3:1). The “Bd inhibition score (percent inhibition), mean” value was -44.2834% in data set [5] (synthesized peptide 15.625 μg/mL); -68.3967% in data set [5] (synthesized peptide 31.25 μg/mL); -39.8112% in data set [5] (synthesized peptide 62.5 μg/mL); -55.6571% in data set [5] (synthesized peptide 125 μg/mL); -81.8611% in data set [5] (synthesized peptide 250 μg/mL); -318.384% in data set [5] (synthesized peptide 500 μg/mL). Besides, in the data set on HepG2 (ATCC HB-8065), the “HepG2 cytotoxicity in words” value was “No HepG2 cytotox was observed”.
